Our source for the EC50 values is patent US20260102418A1, “An anti-influenza virus derivative and uses thereof” (Shijiazhuang Discovery Medicine Technology Co., Ltd., priority 2022, published 2026).

The test system of this experiment is A/Weiss/43 (H1N1) oseltamivir-resistant strain. Kind of experiment: Antiviral CPE assay in MDCK, other influenza strains. It counts as cell-based, influenza A virus (IAV). The conditions noted are these: Influenza A virus.
Compound `[2H]C([2H])([2H])OC(=O)OCOc1c2n(ccc1=O)N([C@@H]1c3ccccc3[Se]Cc3c1ccc(F)c3F)[C@@H]1COC3(CC3)CN1C2=O` [DS1833] yielded an EC50 of 1.16 ± 0.37 nM. Compound `COC(=O)OCOc1c2n(ccc1=O)N([C@@H]1c3ccccc3SCc3c1ccc(F)c3F)[C@@H]1COC3(CC3)CN1C2=O` [Compound M42, reference compound] came in with an EC50 of 2.11 ± 0.72 nM. In the case of `[2H]C([2H])([2H])OC(=O)OCOc1c2n(ccc1=O)N([C@@H]1c3ccccc3SCc3c1ccc(F)c3F)[C@@H]1COC3(CC3)CN1C2=O` [DS1837] it was 1.45 ± 0.55 nM; in that of `O=C1c2c(OCOP(=O)(O)O)c(=O)ccn2N([C@@H]2c3ccccc3[Se]Cc3c2ccc(F)c3F)[C@@H]2COC3(CC3)CN12` [DS14915], 1.33 ± 0.22 nM. In the case of `NC(=O)c1ncn([C@@H]2O[C@H](CO)[C@@H](O)[C@H]2O)n1` [Ribavirin, reference compound] it was 30300 ± 4080 nM.
